From US20200261421A1, “HETEROCYCLIC COMPOUNDS AS HIV PROTEASE INHIBITORS” (Merck Sharp & Dohme Corp., priority 2016, published 2020) come the findings set out here.

The assay has as its target T1, wild-type HIV-1 protease (Human immunodeficiency virus type 1 group M subtype B, UniProt P04585).
T1 construct: Escherichia coli expressed wild-type HIV-1 protease protein; made in house; host or cells: Escherichia coli
As to the kind of experiment: Assay for Inhibition of Microbial Expressed HIV Protease. It counts as biochemical. To be noted: Escherichia coli expressed wild-type HIV-1 protease, peptide substrate cleavage; mean of at least two independent experiments. Here is the method: Inhibition of Escherichia coli expressed wild-type HIV-1 protease protein was carried out with a peptide substrate [Val-Ser-Gln-Asn-Wnaphtyl)Ala-Pro-Ile-Val]. The inhibitor compound was preincubated with HIV-1 protease enzyme in assay buffer (50 mM sodium acetate, pH 5.5, 100 mM NaCl, and 0.1% BSA) for 30 minutes at room temperature. Peptide substrate was added to 400 μM in a total volume of 20 μL containing 20 pM HIV-1 protease (final) after which the reaction was incubated for 1 hour at 30° C. The reaction was quenched by the addition of formic acid and HIV protease inhibitor indinavir to 0.012% and 150 nM final concentrations, respectively. Product formation was determined after separation of product and substrate on a ZORBAX Eclipse XDB-C18 column (Aligent Technologies, Santa Clara, Calif., USA) connected to an API 4000™ mass spectrometer (AB Sciex, Pte. Ltd., Concord Ontario, Canada) with multiple reaction monitoring (transitions were 644.5/428.9 and 615.4/422.2 (M1/M3) for product and indinavir respectively). The extent of inhibition of the reaction was determined from the peak area of the products. Analysis of the products, independently synthesized, provided quantitation standards and confirmation of the product composition. […] Ic50's refer to the 50% inhibition of the cleavage of a peptide substrate by hiv protease.
Data shown in the table reflects the mean of at least two independent experiments.

Regarding `CC(C)CC1(c2ccccc2)NC(=N)N(Cc2ccc(C(F)(F)F)c(C(=O)NCc3ccc(C#N)cc3)c2)C1=O` (centres unmarked) [Example 1, N-(4-cyanobenzyl)-5-{[2-imino-4-(2-methylpropyl)-5-oxo-4-phenylimidazolidin-1-yl]methyl}-2-(trifluoromethyl)benzamide], the midpoint of inhibition, the IC50, lay at 0.016 µM.

In turn, `CN(Cc1ccc(C#N)cc1)C(=O)c1cc(CN2C(=N)NC(c3ccccc3)(c3ccccc3)C2=O)ccc1C(F)(F)F` [Example 2, N-(4-cyanobenzyl)-5-[(2-imino-5-oxo-4,4-diphenylimidazolidin-1-yl)methyl]-N-methyl-2-(trifluoromethyl)benzamide] displayed an IC50 of 0.0182 µM. The result for `CN(Cc1ccccc1S(C)(=O)=O)C(=O)c1cc(CN2C(=N)NC(c3ccccc3)(c3ccccc3)C2=O)ccc1C(F)(F)F` [Example 3, 5-[(2-imino-5-oxo-4,4-diphenylimidazolidin-1-yl)methyl]-N-methyl-N-[2-(methylsulfonyl)benzyl]-2-(trifluoromethyl)benzamide] reads 0.0223 µM. The result for `N=C1NC(c2ccc(F)cc2)(c2ccc(F)cc2)C(=O)N1Cc1ccc(C(F)(F)F)c(C(=O)NCc2cnccn2)c1` [Example 4, 5-{[4,4-bis(4-fluorophenyl)-2-imino-5-oxoimidazolidin-1-yl]methyl}-N-(pyrazin-2-ylmethyl)-2-(trifluoromethyl)benzamide] reads 0.0309 µM; that for `N#Cc1ccc(CNC(=O)c2cc(CN3C(=N)NC(c4ccc(F)cc4)(c4ccc(F)cc4)C3=O)ccc2C(F)(F)F)cc1` [Example 5, 5-{[4,4-bis(4-fluorophenyl)-2-imino-5-oxoimidazolidin-1-yl]methyl}-N-(4-cyanobenzyl)-2-(trifluoromethyl)benzamide], 0.043 µM; that for `CC(C)CC1(c2ccccc2)NC(=N)N(Cc2ccc(C(F)(F)F)c(C(=O)NCc3cnccn3)c2)C1=O` (centres unmarked) [Example 6, 5-{[2-imino-4-(2-methylpropyl)-5-oxo-4-phenylimidazolidin-1-yl]methyl}-N-(pyrazin-2-ylmethyl)-2-(trifluoromethyl)benzamide], 0.0464 µM.

Molecule `N=C1NC(c2ccccc2)(c2ccccc2)C(=O)N1Cc1ccc(C(F)(F)F)c(C(=O)NCc2ccccc2OC(F)F)c1` [Example 7, N-[2-(difluoromethoxy)benzyl]-5-[(2-imino-5-oxo-4,4-diphenylimidazolidin-1-yl)methyl]-2-(trifluoromethyl)benzamide] yielded an IC50 of 0.0524 µM.

In the case of `CC(C)CCC1(c2ccccc2)NC(=N)N(Cc2ccc(C(F)(F)F)c(C(=O)NCc3ncccn3)c2)C1=O` (centres unmarked) [Example 8, 5-{[2-imino-4-(3-methylbutyl)-5-oxo-4-phenylimidazolidin-1-yl]methyl}-N-(pyrimidin-2-ylmethyl)-2-(trifluoromethyl)benzamide], the IC50 is 0.0546 µM. The result for `N=C1NC(c2ccccc2)(c2ccccc2)C(=O)N1Cc1ccc(C(F)(F)F)c(C(=O)NCc2cccc(OC(F)F)c2)c1` [Example 9, N-[3-(difluoromethoxy)benzyl]-5-[(2-imino-5-oxo-4,4-diphenylimidazolidin-1-yl)methyl]-2-(trifluoromethyl)benzamide] reads 0.0684 µM; that for `CC(C)CCC1(c2ccccc2)NC(=N)N(Cc2ccc(C(F)(F)F)c(C(=O)NCC(F)F)c2)C1=O` (centres unmarked) [Example 10, N-(2,2-difluoroethyl)-5-{[2-imino-4-(3-methylbutyl)-5-oxo-4-phenylimidazolidin-1-yl]methyl}-2-(trifluoromethyl)benzamide], 0.0912 µM. Take `CC(C)CC1(c2ccccc2)NC(=N)N(Cc2ccc(C(F)(F)F)c(C(=O)NCc3ncccn3)c2)C1=O` (centres unmarked) [Example 11, 5-{[2-imino-4-(2-methylpropyl)-5-oxo-4-phenylimidazolidin-1-yl]methyl}-N-(pyrimidin-2-ylmethyl)-2-(trifluoromethyl)-benzamide]: the half-maximal inhibitory concentration (IC50) was determined as 0.0921 µM.
